{"source": "patent US20120141611A1", "about": "“METHODS AND COMPOSITIONS USING ERGOTHIONEINE TO TREAT A VARIETY OF HEALTH RELATED FACTORS” (Oxis International Inc., priority 2010, published 2012)", "origin": "cited, not measured here", "key": {"[1]": {"details": "Sheep; cited from earlier work"}, "[2]": {"details": "physiologic pH, does not auto-oxidize; cited from earlier work"}, "[3]": {"details": "Rat, cited from earlier work"}, "[4]": {"details": "Ox; cited from earlier work"}, "Cu/Zn SOD": {"molecular_target": "Cu/Zn SOD (Mus musculus, UniProt P08228)", "sequence (P08228 whole entry)": "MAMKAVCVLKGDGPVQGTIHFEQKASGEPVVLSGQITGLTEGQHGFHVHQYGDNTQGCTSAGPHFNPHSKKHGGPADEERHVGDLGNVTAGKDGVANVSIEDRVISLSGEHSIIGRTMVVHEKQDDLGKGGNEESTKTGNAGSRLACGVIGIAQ", "details": "12.5 mM; cited from earlier work"}, "[5]": {"details": "cited from earlier work"}, "[6]": {"details": "cited from earlier work", "remark": "listed apart in the source"}, "[7]": {"details": "rat; cited from earlier work"}, "erythrocytes": {"system": "erythrocytes", "details": "added to hemolyzed erythrocytes or erythrocyte suspensions; cited from earlier work"}, "[8]": {"details": "Pig; cited from earlier work"}, "[9]": {"details": "Dog, cited from earlier work"}, "rat retina": {"system": "rat retina", "details": "NMDA, cited from earlier work"}, "[10]": {"details": "physiological concentrations; cited from earlier work"}, "cerebellum": {"system": "cerebellum", "details": "decerebrate rabbit; cited from earlier work"}, "mouse skin": {"system": "mouse skin", "details": "UV-induced skin damage; cited from earlier work"}, "[11]": {"details": "animal experimental model of diabetes; cited from earlier work"}, "[12]": {"details": "room temperature; cited from earlier work"}, "[13]": {"details": "physiological concentrations; cited from earlier work", "remark": "listed apart in the source"}, "glutathione reductase": {"molecular_target": "T1, glutathione reductase (Mus musculus, UniProt P47791)", "T1 construct": "glutathione peroxidase and glutathione reductase activities in mouse liver cytosol fractions; from tissue; host or cells: mouse liver cytosol fractions (result quoted from the literature)", "T1 sequence (P47791 27-500)": "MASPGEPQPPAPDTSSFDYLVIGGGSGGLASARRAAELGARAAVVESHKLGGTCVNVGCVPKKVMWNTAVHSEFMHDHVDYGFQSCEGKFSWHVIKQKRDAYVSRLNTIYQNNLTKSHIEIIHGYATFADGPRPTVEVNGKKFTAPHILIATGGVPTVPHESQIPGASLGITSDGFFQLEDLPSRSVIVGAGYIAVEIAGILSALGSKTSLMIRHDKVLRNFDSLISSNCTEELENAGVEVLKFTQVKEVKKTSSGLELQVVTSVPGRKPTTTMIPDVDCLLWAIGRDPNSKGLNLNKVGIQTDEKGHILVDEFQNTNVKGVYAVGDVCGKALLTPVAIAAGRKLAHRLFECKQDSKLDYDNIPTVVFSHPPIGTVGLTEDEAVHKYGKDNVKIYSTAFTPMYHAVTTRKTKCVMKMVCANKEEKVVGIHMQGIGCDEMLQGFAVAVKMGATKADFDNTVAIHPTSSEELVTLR", "details": "mouse liver cytosol fractions; cited from earlier work"}, "[14]": {"details": "<1 nmol/gm liver versus dietary-augmented animals 1400 nmol/gm liver; cited from earlier work"}, "[15]": {"details": "animal studies, in the diet; cited from earlier work"}, "[16]": {"details": "ergothioneine ingestion or administration, humans or animals; cited from earlier work"}, "human platelets": {"system": "human platelets", "details": "human platelets in vitro; cited from earlier work"}, "[17]": {"details": "low concentrations; cited from earlier work"}, "isolated rat heart": {"system": "isolated rat heart", "details": "0.1 mM; cited from earlier work"}, "[18]": {"details": "cited from earlier work", "remark": "listed apart in the source"}, "[19]": {"details": "cited from earlier work", "remark": "listed apart in the source"}, "isolated rabbit heart": {"system": "isolated rabbit heart", "details": "cited from earlier work"}, "[20]": {"details": "225 g rat, controlled diet of ergothioneine supplementation"}}, "note": "Entries after “also recorded” stand apart in the source; their conditions may differ. Where two headings read alike, the source gives them in different places."}
{"compound": "C[N+](C)(C)[C@@H](Cc1c[nH]c(=S)[nH]1)C(=O)[O-]", "note": "[Ergothioneine, ergothioneine]", "values": [{"measurement": "Concentration of l-ergothioneine in the blood", "setting": "[1]", "result": "2-6 mg/100 ml blood"}, {"measurement": "Stability in aqueous solution", "setting": "[2]", "result": "very stable in aqueous solution"}, {"measurement": "Concentration of LE in tissue", "setting": "[3]; Heart", "result": 1.5, "unit": "mgs/100 gm fresh tissue"}, {"measurement": "Concentration of LE in tissue", "setting": "[3]; Intestine", "result": 0.6, "unit": "mgs/100 gm fresh tissue"}, {"measurement": "Concentration of LE in tissue", "setting": "[3]; Kidney", "result": 4.3, "unit": "mgs/100 gm fresh tissue"}, {"measurement": "Concentration of LE in tissue", "setting": "[3]; Liver", "result": 13.3, "unit": "mgs/100 gm fresh tissue"}, {"measurement": "Concentration of LE in tissue", "setting": "[3]; Lungs", "result": 1.5, "unit": "mgs/100 gm fresh tissue"}, {"measurement": "Concentration of LE in tissue", "setting": "[3]; Muscle", "result": 0.7, "unit": "mgs/100 gm fresh tissue"}, {"measurement": "Concentration of LE in tissue", "setting": "[3]; Plasma", "result": 0.0, "unit": "mgs/100 gm fresh tissue"}, {"measurement": "Concentration of LE in tissue", "setting": "[3]; RBC", "result": 10.4, "unit": "mgs/100 gm fresh tissue"}, {"measurement": "Concentration of LE in tissue", "setting": "[3]; Spleen", "result": 1.1, "unit": "mgs/100 gm fresh tissue"}, {"measurement": "Concentration of LE in tissue", "setting": "[3]; Stomach", "result": 0.4, "unit": "mgs/100 gm fresh tissue"}, {"measurement": "Concentration of LE in tissue", "setting": "[3]; Testes", "result": 0.0, "unit": "mgs/100 gm fresh tissue"}, {"measurement": "Concentration of l-ergothioneine in the blood", "setting": "[3]", "result": "1-6 mg/100 ml blood"}, {"measurement": "Concentration of l-ergothioneine in the blood", "setting": "[4]", "result": "0.5-2 mg/100 ml blood"}, {"measurement": "Cytosolic Cu/Zn SOD activity", "setting": "Cu/Zn SOD", "result": "no increased activity"}, {"measurement": "Sulfur label recovered in the urine as free sulfate", "setting": "[5]; 35S-ergothioneine", "result": "35-65%"}, {"measurement": "Dose recovered by urinary excretion", "setting": "[5]; bolus injected, in approximately 6 hours", "result": 60, "unit": "%"}, {"measurement": "Share of urine products identified as ergothioneine", "setting": "[5]; bolus injected", "result": "About one-third"}, {"measurement": "Share of urine products identified as hercynine", "setting": "[5]; bolus injected", "result": "About one-third"}, {"measurement": "Concentration of LE in tissue", "setting": "[6]; Cat, Heart", "result": 0.0, "unit": "mgs/100 gm fresh tissue"}, {"measurement": "Concentration of LE in tissue", "setting": "[6]; Cat, Kidney", "result": 3.1, "unit": "mgs/100 gm fresh tissue"}, {"measurement": "Concentration of LE in tissue", "setting": "[6]; Cat, Liver", "result": 2.7, "unit": "mgs/100 gm fresh tissue"}, {"measurement": "Concentration of LE in tissue", "setting": "[6]; Cat, Lungs", "result": 0.8, "unit": "mgs/100 gm fresh tissue"}, {"measurement": "Concentration of LE in tissue", "setting": "[6]; Cat, RBC", "result": 2.9, "unit": "mgs/100 gm fresh tissue"}, {"measurement": "Concentration of LE in tissue", "setting": "[6]; Cat, Testes", "result": 0.0, "unit": "mgs/100 gm fresh tissue"}, {"measurement": "Concentration of l-ergothioneine in the blood", "setting": "[6]; Cat", "result": "0.5-2 mg/100 ml blood"}, {"measurement": "Ergothioneine in brain", "setting": "[6]; brains of cats", "result": 3.0, "unit": "µg/g"}, {"measurement": "Whole body half-life", "setting": "[7]", "result": "approximately 30 days"}, {"measurement": "Lactate production", "setting": "erythrocytes", "result": "increased lactate production"}, {"measurement": "Concentration of l-ergothioneine in the blood", "setting": "[8]", "result": "3-27 mg/100 ml blood"}, {"measurement": "Concentration of LE in tissue", "setting": "[9]; Heart", "result": 8.9, "unit": "mgs/100 gm fresh tissue"}, {"measurement": "Concentration of LE in tissue", "setting": "[9]; Kidney", "result": 1.6, "unit": "mgs/100 gm fresh tissue"}, {"measurement": "Concentration of LE in tissue", "setting": "[9]; Liver", "result": 0.9, "unit": "mgs/100 gm fresh tissue"}, {"measurement": "Concentration of LE in tissue", "setting": "[9]; Lungs", "result": 0.6, "unit": "mgs/100 gm fresh tissue"}, {"measurement": "Concentration of LE in tissue", "setting": "[9]; RBC", "result": 6.6, "unit": "mgs/100 gm fresh tissue"}, {"measurement": "Concentration of LE in tissue", "setting": "[9]; Spleen", "result": 1.1, "unit": "mgs/100 gm fresh tissue"}, {"measurement": "Concentration of LE in tissue", "setting": "[9]; Testes", "result": 0.0, "unit": "mgs/100 gm fresh tissue"}, {"measurement": "Concentration of l-ergothioneine in the blood", "setting": "[9]", "result": "3-6 mg/100 ml blood"}, {"measurement": "Loss of nonganglion cells", "setting": "rat retina; rats treated with ergothioneine (43% without)", "result": 31, "unit": "%"}, {"measurement": "Loss of ganglion cells", "setting": "rat retina; rats treated with ergothioneine (81% without)", "result": 44, "unit": "%"}, {"measurement": "Ameloid Precursor Protein (APP)", "setting": "rat retina", "result": "significant decreases"}, {"measurement": "Inactivation of hydroxyl radical", "setting": "[10]", "result": "potent diffusion-controlled inactivation"}, {"measurement": "Action on the electrical activity of the cerebellum", "setting": "cerebellum", "result": "some excitatory action"}, {"measurement": "Protection of mouse skin in vivo", "setting": "mouse skin", "result": "failed to protect mouse skin in vivo"}, {"measurement": "Developmental defects of embryos", "setting": "[11]", "result": "reverse the developmental defects to almost that of the control group"}, {"measurement": "Solubility limit", "setting": "[12]", "result": 900, "unit": "mM"}, {"measurement": "Protection of API against HOCl-induced inactivation", "setting": "[13]", "result": "protect very efficiently"}, {"measurement": "Glutathione reductase activity", "setting": "glutathione reductase", "result": "markedly increased"}, {"measurement": "Increase in hepatic lipid peroxidation in partially LE-deficient rats", "setting": "[14]", "result": 40, "unit": "%"}, {"measurement": "Dietary level producing measurable changes in circulating whole blood levels", "setting": "[15]", "result": "1 part per 100,000"}, {"measurement": "Deleterious / negative side effects", "setting": "[16]", "result": "No documented negative side effects; also recorded: no deleterious effects"}, {"measurement": "CO2 production from pyruvate", "setting": "human platelets", "result": "increases in CO2 production from pyruvate"}, {"measurement": "Production of lactate", "setting": "human platelets", "result": "decreased production of lactate"}, {"measurement": "Radioprotection in vitro", "setting": "[17]", "result": "very potent radioprotector even at low concentrations"}, {"measurement": "Protection against reperfusion injury as measured by LDH release", "setting": "isolated rat heart", "result": "protected the isolated rat heart against reperfusion injury"}, {"measurement": "Absorptive gain per day", "setting": "[18]; [20]", "result": 20, "unit": "µg/day"}, {"measurement": "Fecal and urine loss", "setting": "[18]; [20]", "result": 2, "unit": "ug/per day"}, {"measurement": "Fraction of dietary ergothioneine absorbed", "setting": "[18]; 225 gm rat, 20 ug/day in the diet (Mayumi et al.)", "result": 90, "unit": "%"}, {"measurement": "Time to double the total body amount of ergothioneine", "setting": "[18]; rat, 89 ug ergothioneine/kg-day supplementation", "result": "approximately 2 months"}, {"measurement": "Accumulation rate", "setting": "[18]; rat, from gain and loss per day", "result": 90, "unit": "%"}, {"measurement": "Concentration of LE in tissue", "setting": "[19]; Rabbit, Heart", "result": 2.7, "unit": "mgs/100 gm fresh tissue"}, {"measurement": "Concentration of LE in tissue", "setting": "[19]; Rabbit, Kidney", "result": 0.3, "unit": "mgs/100 gm fresh tissue"}, {"measurement": "Concentration of LE in tissue", "setting": "[19]; Rabbit, Liver", "result": 0.3, "unit": "mgs/100 gm fresh tissue"}, {"measurement": "Concentration of LE in tissue", "setting": "[19]; Rabbit, Lungs", "result": 0.3, "unit": "mgs/100 gm fresh tissue"}, {"measurement": "Concentration of LE in tissue", "setting": "[19]; Rabbit, RBC", "result": 10, "unit": "mgs/100 gm fresh tissue"}, {"measurement": "Concentration of LE in tissue", "setting": "[19]; Rabbit, Spleen", "result": 1.0, "unit": "mgs/100 gm fresh tissue"}, {"measurement": "Concentration of LE in tissue", "setting": "[19]; Rabbit, Testes", "result": 0.1, "unit": "mgs/100 gm fresh tissue"}, {"measurement": "Concentration of l-ergothioneine in the blood", "setting": "[19]; Rabbit", "result": "1-10 mg/100 ml blood"}, {"measurement": "Ergothioneine in optic nerves", "setting": "[19]; optic nerves of the rabbit", "result": 30, "unit": "µg/g"}, {"measurement": "Protection against ischemia-reperfusion injury", "setting": "isolated rabbit heart", "result": "failed to protect"}]}
